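Step 1: Grow cells in 96-well plates. Step 2: Expose to compound for 48 hours at 5 concentrations. Step 3: Interpolate endpoints linearly; if unreached, use highest concentration. At the TGI there is no net growth.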
What was measured:
Assay in all cases: inhibition of tumour cell growth, NCI panel, 48 h
786-0 renal = tested on: 786-0 renal
A498 renal = tested on: A498 renal
A549 NSCLC = tested on: A549 NSCLC
ACHN renal = tested on: ACHN renal
BT-549 breast = tested on: BT-549 breast
CAKI-1 renal = tested on: CAKI-1 renal
CCRF-CEM leukemia = tested on: CCRF-CEM leukemia
COLO 205 colon = tested on: COLO 205 colon
DU-145 prostate = tested on: DU-145 prostate
EKVX NSCLC = tested on: EKVX NSCLC
HCC-2998 colon = tested on: HCC-2998 colon
HCT-116 colon = tested on: HCT-116 colon
HCT-15 colon = tested on: HCT-15 colon
HL-60(TB) leukemia = tested on: HL-60(TB) leukemia
HOP-62 NSCLC = tested on: HOP-62 NSCLC
HOP-92 NSCLC = tested on: HOP-92 NSCLC
HS 578T breast = tested on: HS 578T breast
HT29 colon = tested on: HT29 colon
IGROV1 ovarian = tested on: IGROV1 ovarian
K-562 leukemia = tested on: K-562 leukemia
KM12 colon = tested on: KM12 colon
LOX IMVI melanoma = tested on: LOX IMVI melanoma
M14 melanoma = tested on: M14 melanoma
MALME-3M melanoma = tested on: MALME-3M melanoma
MCF7 breast = tested on: MCF7 breast
MDA-MB-231 breast = tested on: MDA-MB-231 breast
MDA-MB-435 = tested on: MDA-MB-435
MOLT-4 leukemia = tested on: MOLT-4 leukemia
NCI-H226 lung = tested on: NCI-H226 lung
NCI-H23 lung = tested on: NCI-H23 lung
NCI-H460 lung = tested on: NCI-H460 lung
NCI-H522 lung = tested on: NCI-H522 lung
NCI/ADR-RES ovarian = tested on: NCI/ADR-RES ovarian
OVCAR-3 ovarian = tested on: OVCAR-3 ovarian
OVCAR-4 ovarian = tested on: OVCAR-4 ovarian
OVCAR-5 ovarian = tested on: OVCAR-5 ovarian
OVCAR-8 ovarian = tested on: OVCAR-8 ovarian
PC-3 prostate = tested on: PC-3 prostate
RPMI-8226 leukemia = tested on: RPMI-8226 leukemia
RXF 393 renal = tested on: RXF 393 renal
SF-268 CNS = tested on: SF-268 CNS
SF-295 CNS = tested on: SF-295 CNS
SK-MEL-2 melanoma = tested on: SK-MEL-2 melanoma
SK-MEL-28 melanoma = tested on: SK-MEL-28 melanoma
SK-MEL-5 melanoma = tested on: SK-MEL-5 melanoma
SK-OV-3 ovarian = tested on: SK-OV-3 ovarian
SN12C renal = tested on: SN12C renal
SNB-19 CNS = tested on: SNB-19 CNS
SW-620 colon = tested on: SW-620 colon
T-47D breast = tested on: T-47D breast
TK-10 renal = tested on: TK-10 renal
U251 CNS = tested on: U251 CNS
UACC-257 melanoma = tested on: UACC-257 melanoma
UACC-62 melanoma = tested on: UACC-62 melanoma
UO-31 renal = tested on: UO-31 renal
SF-539 CNS = tested on: SF-539 CNS
SNB-75 CNS = tested on: SNB-75 CNS

## CS(=O)(=O)Nc1ccc(Nc2cc[nH]c3ccc4nccc4c23)cc1
786-0 renal
  TGI: 38.4 µM
A498 renal
  TGI: 34.2 µM
A549 NSCLC
  TGI: 38.8 µM
ACHN renal
  TGI: 65.3 µM
BT-549 breast
  TGI: 40 µM
CAKI-1 renal
  TGI: 68.4 µM
CCRF-CEM leukemia
  TGI: > 67.8 µM
COLO 205 colon
  TGI: 44.2 µM
DU-145 prostate
  TGI: 22.2 µM
EKVX NSCLC
  TGI: 58.7 µM
HCC-2998 colon
  TGI: 16.3 µM
HCT-116 colon
  TGI: > 43.1 µM
HCT-15 colon
  TGI: > 100 µM
HL-60(TB) leukemia
  TGI: 42 µM
HOP-62 NSCLC
  TGI: 37.3 µM
HOP-92 NSCLC
  TGI: 46.3 µM
HS 578T breast
  TGI: > 60.8 µM
HT29 colon
  TGI: 48.4 µM
IGROV1 ovarian
  TGI: 58.5 µM
K-562 leukemia
  TGI: 32 µM
KM12 colon
  TGI: 28.1 µM
LOX IMVI melanoma
  TGI: 34.2 µM
M14 melanoma
  TGI: 30.4 µM
MALME-3M melanoma
  TGI: 18.4 µM
MCF7 breast
  TGI: 20.7 µM
MDA-MB-231 breast
  TGI: 21.6 µM
MDA-MB-435
  TGI: 29.5 µM
MOLT-4 leukemia
  TGI: 7.78 µM
NCI-H226 lung
  TGI: 24.5 µM
NCI-H23 lung
  TGI: 38.5 µM
NCI-H460 lung
  TGI: 31.8 µM
NCI-H522 lung
  TGI: 24.3 µM
NCI/ADR-RES ovarian
  TGI: > 100 µM
OVCAR-3 ovarian
  TGI: 32.5 µM
OVCAR-4 ovarian
  TGI: 26.2 µM
OVCAR-5 ovarian
  TGI: 61.1 µM
OVCAR-8 ovarian
  TGI: > 65.1 µM
PC-3 prostate
  TGI: 30.3 µM
RPMI-8226 leukemia
  TGI: 44.6 µM
RXF 393 renal
  TGI: 30.2 µM
SF-268 CNS
  TGI: 18.9 µM
SF-295 CNS
  TGI: 62.2 µM
SK-MEL-2 melanoma
  TGI: 23.9 µM
SK-MEL-28 melanoma
  TGI: 32.2 µM
SK-MEL-5 melanoma
  TGI: 24.7 µM
SK-OV-3 ovarian
  TGI: > 100 µM
SN12C renal
  TGI: 32.3 µM
SNB-19 CNS
  TGI: 26.3 µM
SW-620 colon
  TGI: 49.8 µM
T-47D breast
  TGI: 22.6 µM
TK-10 renal
  TGI: 82.1 µM
U251 CNS
  TGI: 22 µM
UACC-257 melanoma
  TGI: 31.5 µM
UACC-62 melanoma
  TGI: 28.1 µM
UO-31 renal
  TGI: > 81.2 µM

## CC1CCC(C(C)C2C(O)CC3C4CC=C5CC(O)CCC5(C)C4CCC32C)NC1 (stereo not given)
786-0 renal
  TGI: 89.9 µM
A498 renal
  TGI: > 100 µM
A549 NSCLC
  TGI: > 100 µM
ACHN renal
  TGI: > 100 µM
BT-549 breast
  TGI: > 100 µM
COLO 205 colon
  TGI: > 100 µM
DU-145 prostate
  TGI: > 100 µM
EKVX NSCLC
  TGI: > 100 µM
HCC-2998 colon
  TGI: 53.1 µM
HCT-116 colon
  TGI: > 100 µM
HCT-15 colon
  TGI: > 100 µM
HL-60(TB) leukemia
  TGI: 52.8 µM
HOP-62 NSCLC
  TGI: 66 µM
HOP-92 NSCLC
  TGI: 69.8 µM
HS 578T breast
  TGI: > 100 µM
HT29 colon
  TGI: > 100 µM
K-562 leukemia
  TGI: > 100 µM
LOX IMVI melanoma
  TGI: 51 µM
M14 melanoma
  TGI: > 100 µM
MALME-3M melanoma
  TGI: 55.2 µM
MCF7 breast
  TGI: > 100 µM
MDA-MB-231 breast
  TGI: 81.6 µM
MDA-MB-435
  TGI: 65.8 µM
MOLT-4 leukemia
  TGI: 35.8 µM
NCI-H226 lung
  TGI: > 100 µM
NCI-H23 lung
  TGI: > 100 µM
NCI-H460 lung
  TGI: > 100 µM
NCI-H522 lung
  TGI: > 100 µM
NCI/ADR-RES ovarian
  TGI: 58.2 µM
OVCAR-4 ovarian
  TGI: 53.4 µM
OVCAR-5 ovarian
  TGI: > 100 µM
OVCAR-8 ovarian
  TGI: 29.3 µM
PC-3 prostate
  TGI: 95.4 µM
RXF 393 renal
  TGI: > 100 µM
SF-268 CNS
  TGI: > 100 µM
SF-539 CNS
  TGI: > 100 µM
SK-MEL-2 melanoma
  TGI: > 100 µM
SK-MEL-28 melanoma
  TGI: > 100 µM
SK-MEL-5 melanoma
  TGI: > 100 µM
SK-OV-3 ovarian
  TGI: > 100 µM
SN12C renal
  TGI: 47.2 µM
SNB-19 CNS
  TGI: 74.5 µM
SNB-75 CNS
  TGI: > 100 µM
SW-620 colon
  TGI: > 100 µM
T-47D breast
  TGI: > 100 µM
TK-10 renal
  TGI: 30.4 µM
U251 CNS
  TGI: 70.3 µM
UACC-257 melanoma
  TGI: > 100 µM
UACC-62 melanoma
  TGI: > 100 µM
UO-31 renal
  TGI: > 100 µM
